From ChEMBL document CHEMBL3507680, “University of Dundee, Gates Library screen for HepG2 cell viability”

Experiment: Human HepG2 cell viability assay in 384 well format
Format: toxicity, cell-based
Set-up: dose 125 nL, time 70.5 hour; concentration not given beside the values
Settings: HepG2 cells, read-out: Inhibition
In the case of `NC(=O)CN(CC(=O)NCc1cc(F)cc(F)c1)C1CCCC1`, the cytotoxicity at 70.5 h is reported as -10.9%. In the case of `Cc1ccc(N2CCCN(C(=O)c3cccc4c3ccn4C)CC2)nn1`, the cytotoxicity at 70.5 h is reported as -7.32%. `COC(=O)N1CCCC(NC(=O)NCc2csc(C)n2)C1` (centres undefined) showed a cytotoxicity at 70.5 h of -10.6%. Compound `CCNc1cc2c(nn1)CCN(C(=O)C1COc3ccccc3O1)C2` (centres undefined) has a cytotoxicity at 70.5 h of -12.7%. For `CCNc1cc2c(nn1)CCN(C(=O)C1COc3ccccc3C1)C2` (centres undefined), the cytotoxicity at 70.5 h was -12.3%. Compound `COCc1ccc(C(=O)N2CCN(CCS(C)(=O)=O)CC2)cc1` has a cytotoxicity at 70.5 h of -10.7%. `CC(C)CCS(=O)(=O)CC(=O)N1CCCC1c1cnn(C)c1` (centres undefined) gave a cytotoxicity at 70.5 h of -5.18%. Work on `CN(C)c1cc2c(nn1)CCN(C(=O)C1COc3ccccc3C1)C2` (centres undefined) yielded a cytotoxicity at 70.5 h of 3.17%. In the case of `CN(C)c1cc2c(nn1)CCN(C(=O)c1cc3c(s1)CCOC3)C2`, the cytotoxicity at 70.5 h is reported as -15.2%. In the case of `Cc1csc(C2CCCN(C(=O)c3cnn4ccc(C)nc34)C2)n1` (centres undefined), the cytotoxicity at 70.5 h is reported as -8.34%. In the case of `CC(CNC(=O)c1cc(N2CCNC2=O)ccc1F)c1ccccc1` (centres undefined), the cytotoxicity at 70.5 h is reported as -6.76%. For `COCCNc1ccccc1CNC(=O)NCc1cnc(C)s1`, the cytotoxicity at 70.5 h was -0.0167%. Work on `COCCNc1ccccc1CNC(=O)NCc1nc(C)c(C)s1` yielded a cytotoxicity at 70.5 h of -7.21%. In the case of `CCOCCN1CCN(CCC(=O)N2CCCCC2)CC1`, the cytotoxicity at 70.5 h is reported as -8.84%. `COc1cc(CN2CCC(NC(=O)c3cccn3C)C2)cc(OC)c1` (centres undefined) showed a cytotoxicity at 70.5 h of -7.95%. In the case of `CCCNC(=O)Cn1c(C)nn(C(C)(C)C)c1=O`, the cytotoxicity at 70.5 h is reported as 9.3%. Compound `CC(C)N(CCNC(=O)N1CCCC(N(C)C)C1)C1CC1` (centres undefined) has a cytotoxicity at 70.5 h of 13.5%. With `COC1CCN(CCNC(=O)NC(C)c2ccc(F)c(F)c2)CC1` (centres undefined) the cytotoxicity at 70.5 h was 23.5%. In the case of `CCCNC1(c2ccc(Cl)cc2)CCOCC1`, the cytotoxicity at 70.5 h is reported as 6.67%. `O=C(CNC(=O)C1CC1)NCc1ccc(Cl)s1` showed a cytotoxicity at 70.5 h of 1.44%. `Cc1sc(-c2ccco2)nc1C(=O)N(CC1CCOC1)C1CC1` (centres undefined) gave a cytotoxicity at 70.5 h of -1.94%. Work on `CCN(CC1CCOC1)C(=O)c1nc(-c2ccco2)sc1C` (centres undefined) yielded a cytotoxicity at 70.5 h of -2.01%. `Cc1sc(-c2ccco2)nc1C(=O)NCC1CCOC1` (centres undefined) showed a cytotoxicity at 70.5 h of 1.39%. Work on `O=C(Nc1ccc(-n2cncn2)nc1)N(CC1CCOC1)C1CC1` (centres undefined) yielded a cytotoxicity at 70.5 h of -1.97%. Compound `Cc1sc(-c2ccco2)nc1C(=O)N(CC(N)=O)C1CCCC1` has a cytotoxicity at 70.5 h of -2.05%. In the case of `CN(CCCNC(=O)c1ccccc1OCC(N)=O)CC(F)(F)F`, the cytotoxicity at 70.5 h is reported as 1.62%. Compound `Cc1nc(CSCCC(=O)NCCNC(=O)OC(C)(C)C)cs1` has a cytotoxicity at 70.5 h of 3.27%. For `Cc1ccc(-c2nc(C(=O)N3CCCCC3CNS(C)(=O)=O)cs2)cc1` (centres undefined), the cytotoxicity at 70.5 h was 11%. With `COCCC(=O)N1CCC(Nc2ncc(Cl)cn2)CC1` the cytotoxicity at 70.5 h was 0.73%. With `Cc1ccc(CNC(=O)N2CCN(C(C)c3cccnc3)CC2)cn1` (centres undefined) the cytotoxicity at 70.5 h was -3.85%. In the case of `Cn1cc(N2CCCC(Nc3ccc4c(c3)CCCO4)C2=O)cn1` (centres undefined), the cytotoxicity at 70.5 h is reported as -0.945%. Compound `COC1CCN(CCNC(=O)NC(C)c2cccc(Cl)c2)CC1` (centres undefined) has a cytotoxicity at 70.5 h of -0.888%. `CC(NC(=O)COc1cccc[n+]1[O-])C1CC1` (centres undefined) gave a cytotoxicity at 70.5 h of -4.57%. For `COCCN(C(=O)c1nc(-c2ccco2)sc1C)C1CC1`, the cytotoxicity at 70.5 h was -2.88%. For `Cc1ccc(-n2cnnn2)cc1NCC(=O)Nc1cc(F)ccc1F`, the cytotoxicity at 70.5 h was -66.2%. `Cc1ccc(-n2cnnn2)cc1NCC(=O)Nc1ccccc1Cl` gave a cytotoxicity at 70.5 h of -101%. Compound `CCC(C)NC(=O)c1nnn(-c2cccc3c2CCN(C)C3)c1C` (centres undefined) has a cytotoxicity at 70.5 h of 2.37%. For `COCCCNC(=O)Nc1cccc2c1CCN(S(C)(=O)=O)C2`, the cytotoxicity at 70.5 h was 21.4%. Work on `CC(C)NC(=O)Nc1cccc2c1CCN(S(C)(=O)=O)C2` yielded a cytotoxicity at 70.5 h of -1.67%. Compound `CS(=O)(=O)N1CCc2c(cccc2NC(=O)NC2CCCC2)C1` has a cytotoxicity at 70.5 h of -3.1%. Work on `CCSc1ccc(C(=O)NCCc2nnc(-c3ccco3)[nH]2)cn1` yielded a cytotoxicity at 70.5 h of -6.64%. `COc1ccc(COCC(=O)NC2CCc3nc(C)cn3C2)cc1` (centres undefined) gave a cytotoxicity at 70.5 h of -2.95%. Compound `O=C(Nc1nnc[nH]1)C(c1cccc(F)c1)N1CCOCC1` (centres undefined) has a cytotoxicity at 70.5 h of -1.33%. In the case of `CC(C)(CC(=O)Nc1cccc(Oc2ccccn2)c1)C(=O)O`, the cytotoxicity at 70.5 h is reported as -5.32%. Work on `Cc1cc(NS(=O)(=O)c2cccs2)ccc1-n1cccc1C(=O)O` yielded a cytotoxicity at 70.5 h of -1.78%. Compound `COCCN(Cc1cccnc1)S(=O)(=O)c1cc(C)ccc1F` has a cytotoxicity at 70.5 h of -5.06%. For `Cn1ccnc1CNC(=O)N(CCCO)C1CCc2ccccc21` (centres undefined), the cytotoxicity at 70.5 h was -4.97%. `Cc1nc(C)n(CC2CCCCN2Cc2nnc(-c3ccco3)o2)n1` (centres undefined) gave a cytotoxicity at 70.5 h of -6.54%. In the case of `COCCN(Cc1cccnc1)S(=O)(=O)c1ccc(F)cc1C`, the cytotoxicity at 70.5 h is reported as -4.8%. Work on `COc1ccccc1CN(C)C(=O)CN1CC(n2nc(C)cc2C)C1` yielded a cytotoxicity at 70.5 h of -2.12%. Compound `Cc1nc(C)n(CC2CCCN(Cc3nnc(C4CC4)o3)C2)n1` (centres undefined) has a cytotoxicity at 70.5 h of -7.21%. Compound `Cc1cn2c(n1)CCC(NC(=O)COCCOc1ccccc1)C2` (centres undefined) has a cytotoxicity at 70.5 h of -8.88%. `Cc1nc(C)n(CC2CCCN2Cc2nnc(-c3ccco3)o2)n1` (centres undefined) showed a cytotoxicity at 70.5 h of 11.1%. Compound `COc1cccc(CNc2cc(CO)ccc2Cl)c1` has a cytotoxicity at 70.5 h of -8.65%. In the case of `CC(C)Oc1ncc(C(=O)N2CCCC(C(=O)O)C2)cc1Cl` (centres undefined), the cytotoxicity at 70.5 h is reported as -7.98%. In the case of `CN(Cc1ccc(Cl)s1)C(=O)Cn1nc(-c2ccc(F)cc2)oc1=O`, the cytotoxicity at 70.5 h is reported as -13.3%. `CN(Cc1cccc(Cl)c1)C(=O)Cn1nc(-c2ccc(F)cc2)oc1=O` showed a cytotoxicity at 70.5 h of -2.8%. With `CC(NCc1ccc(C(N)=O)cc1)c1ccc(Cl)c(Cl)c1` (centres undefined) the cytotoxicity at 70.5 h was -11.9%. For `O=C(Nc1ccc(F)cc1)C(c1ccccc1)N1CCOCC1` (centres undefined), the cytotoxicity at 70.5 h was 5.55%.
